Earlier results in US9943479B2, “Injectable liquid paracetamol formulation” (GENFARMA LABORATORIO S.L., priority 2006, dated 2018).
≈ marks a conversion by molar mass, not a printed value. Like-named read-outs stand apart in the source and are kept apart here.

## CC(=O)Nc1ccc(O)cc1 [paracetamol, n-acetyl-4-aminophenol]
4° C.
  solubility in aqueous medium: ~8 mg/mL (≈ 52.9 mM)
20° C.
  solubility in aqueous medium: ~12 mg/mL (≈ 79.4 mM)
